Data: US20260008758A1, “LINEAR DIPEPTIDYL PEPTIDASE 1 INHIBITORS AND USES THEREOF” (Insmed Incorporated, priority 2024, published 2026)

Columns and labels:
[1] = target: T1, DPP1 in HL-60 cells (Homo sapiens (Human), UniProt P53634); experiment: DPP1 Cell IC50 assay; format: cell-based; conditions: H-Gly-Phe-AFC substrate, 60 min pre-incubation
Procedure: Media was changed every three to four days and cells were not allowed to exceed 1×10^6 cells per mL. Prior to assay, cells were collected by centrifugation at 500 rcf for 3 minutes, resuspended in PBS and counted. Cells were diluted in PBS to a concentration of 5×10^5 live cells per mL and transferred to black 96-well plates for assay, 60 μL per well. Test articles were diluted in PBS plus 0.5% DMSO, and 20 μL was added to each assay well. Compound was allowed to pre-incubate with cells with gentle shaking at 100 rpm for 60 minutes at 37° C. in a cell culture incubator maintained at 5% CO2, after which 20 μL of 500 μM H-Gly-Phe-AFC substrate (MP Biomedicals; Solon, OH) was added to each well. Plates were returned to the incubator with shaking at 100 rpm for 30 minutes, after which fluorescence was measured at Excitation/Emission 400/505 nm. % Inhibition was calculated from RFU values compared to control cell wells that received only PBS plus 0.5% DMSO. IC50 values for each compound were calculated via the XLFit (IDBS Version 5.3.1.3) Add-On to Microsoft Excel using the four parameter fit equation y=(A+((B-A)/(1+((C/x)^D)))), which appears as equation number 205 (4 Parameter Logistic Model or Sigmoidal Dose-Response Model) in XLFit.

[2] = target: T2, human DPP1 enzyme (Homo sapiens (Human), UniProt P53634); experiment: Human DPP1 enzyme IC50 assay; format: biochemical; conditions: recombinant human DPP1, H-Gly-Arg-AMC substrate 400 μM
Procedure: Test articles were applied to activated human DPP1 enzyme in Assay Buffer (25 mM MES pH 6.0, 50 mM NaCl, 5 mM DTT) in a total reaction volume of 125 μL. 25 μL of compound in Assay Buffer plus 5% DMSO was first added to 50 μL of activated human DPP1 enzyme at a concentration of 1 ng/μL and allowed to pre-incubate for 10 minutes at 37° C. after which 50 μL of 1000 μM H-Gly-Arg-AMC substrate (Bachem; St. Torrance, CA) was added, giving final substrate concentration of 400 μM and a final DMSO concentration of 1%. Substrate cleavage was measured for 90 minutes at 37° C., with fluorescence at Excitation/Emission 350/450 nm measured every 5 minutes. DPP1 concentration was interpolated based on its activity relative to a standard curve of activated human recombinant DPP1 enzyme. IC50 values for each compound were calculated via the XLFit (IDBS Version 5.3.1.3) Add-On to Microsoft Excel using the four parameter fit equation y={A+[(B-A)]/[1+((C/x)^D)]}, which appears as equation number 205 (4 Parameter Logistic Model or Sigmoidal Dose-Response Model) in XLFit. Default constraints were used for each Parameter.

[3] = target: T2, human DPP1 enzyme; experiment: Human DPP1 enzyme single-point percent inhibition testing (HL-60 lysate, H-Gly-Arg-AMC substrate); format: biochemical; conditions: read-out: human DPP1 enzyme % inhibition @ 10 nM, 10 nM compound, 400 μM H-Gly-Arg-AMC, 10 min pre-incubation at 37° C.
[4] = target: T1, DPP1 in HL-60 cells; experiment: DPP1 cell single-point percent inhibition testing (HL-60 cells, H-Gly-Phe-AFC substrate); format: cell-based; conditions: read-out: DPP1 cell % inhibition @ 5 nM, 5 nM compound, 100 μM H-Gly-Phe-AFC, 60 min pre-incubation at 37° C.

T2 sequence (P53634 25-134): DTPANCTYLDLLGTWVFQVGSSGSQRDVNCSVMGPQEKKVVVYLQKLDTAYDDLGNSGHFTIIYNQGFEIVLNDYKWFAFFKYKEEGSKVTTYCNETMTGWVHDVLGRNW
T2 sequence (P53634 231-394): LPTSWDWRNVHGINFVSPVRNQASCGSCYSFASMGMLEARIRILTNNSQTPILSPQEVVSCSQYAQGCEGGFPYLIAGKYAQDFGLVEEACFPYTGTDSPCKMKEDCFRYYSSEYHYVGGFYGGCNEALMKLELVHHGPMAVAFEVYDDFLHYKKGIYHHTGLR
T2 sequence (P53634 395-463): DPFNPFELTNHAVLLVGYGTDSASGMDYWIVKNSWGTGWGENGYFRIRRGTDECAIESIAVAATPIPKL
T1 sequence (P53634 25-134): as the sequence (P53634 25-134) above
T1 sequence (P53634 231-394): as the sequence (P53634 231-394) above
T1 sequence (P53634 395-463): as the sequence (P53634 395-463) above

C[C@@H](O)[C@](C)(N)C(=O)N[C@H](C#N)Cc1ccc(-c2ccc3oc(=O)n(C)c3c2)cc1 [Compound 171A, (2S,3R)-2-amino-N-[(1S)-1-cyano-2-[4-(3-methyl-2-oxo-1,3-benzoxazol-5-yl)phenyl]ethyl]-3-hydroxy-2-methylbutanamide]
IC50 [1]: ≥ 2.5 nM | IC50 [2]: ≥ 15 nM

Cn1c(=O)oc2ccc(-c3ccc(C[C@@H](C#N)NC(=O)[C@@H](N)C4CCCO4)cc3)cc21 (stereo in doubt) [Compound 212, (2S)-2-amino-N-[(1S)-1-cyano-2-[4-(3-methyl-2-oxo-1,3-benzoxazol-5-yl)phenyl]ethyl]-2-[(2R)-oxolan-2-yl]acetamide]
IC50 [1]: 1 to 2.5 nM | IC50 [2]: ≤ 5 nM

Cn1c(=O)oc2ccc(-c3ccc(C[C@@H](C#N)NC(=O)[C@H](N)CCO)cc3)cc21 [Compound 169, (2R)-2-amino-N-[(1S)-1-cyano-2-[4-(3-methyl-2-oxo-1,3-benzoxazol-5-yl)phenyl]ethyl]-4-hydroxybutanamide]
IC50 [1]: ≥ 2.5 nM | IC50 [2]: ≥ 15 nM

Cn1c(=O)oc2ccc(-c3ccc(C[C@@H](C#N)NC(=O)[C@@H](N)[C@@H]4CCc5ccccc54)cc3)cc21 [Compound 206, (S)-2-amino-N—((S)-1-cyano-2-(4-(3-methyl-2-oxo-2,3-dihydrobenzo[d]oxazol-5-yl)phenyl)ethyl)-2-((R)-2,3-dihydro-1H-inden-1-yl)acetamide]
IC50 [1]: ≥ 2.5 nM | IC50 [2]: ≥ 15 nM

CN(C)C[C@H](O)C(=O)N[C@H](C#N)Cc1cc2c(cc1F)-c1ccc(C#N)cc1CO2 [Compound 277A, (2S)—N-[(1S)-1-cyano-2-{8-cyano-2-fluoro-6H-benzo[c]chromen-3-yl}ethyl]-3-(dimethylamino)-2-hydroxypropanamide]
IC50 [1]: ≥ 2.5 nM | IC50 [2]: ≥ 15 nM

Cn1ccc(CC(N)C(=O)N[C@H](C#N)Cc2ccc(-c3ccc4oc(=O)n(C)c4c3)cc2)c1 (stereo partly drawn) [Compound 254, 2-amino-N-[(1S)-1-cyano-2-[4-(3-methyl-2-oxo-1,3-benzoxazol-5-yl)phenyl]ethyl]-3-(1-methylpyrrol-3-yl)propanamide]
IC50 [1]: ≥ 2.5 nM | IC50 [2]: 5 to 15 nM

CO[C@@H](CN(C)C)C(=O)N[C@H](C#N)Cc1ccc(-c2ccc3cnn(C4CCN(C)CC4)c3c2)cc1F [Compound 286, (S)—N—((S)-1-cyano-2-(2-fluoro-4-(1-(1-methylpiperidin-4-yl)-1H-indazol-6-yl)phenyl)ethyl)-3-(dimethylamino)-2-methoxypropanamide]
IC50 [1]: ≥ 2.5 nM | IC50 [2]: 5 to 15 nM

COCCN(C)CCn1c(=O)oc2ccc(-c3ccc(C[C@@H](C#N)NC(=O)[C@](C)(N)C4CCC4)c(F)c3)cc21 [Compound 270B, (2R)-2-amino-N-[(1S)-1-cyano-2-[2-fluoro-4-(3-{2-[(2-methoxyethyl)(methyl)amino]ethyl}-2-oxo-1,3-benzoxazol-5-yl)phenyl]ethyl]-2-cyclobutylpropanamide]
IC50 [1]: 1 to 2.5 nM | IC50 [2]: ≤ 5 nM

Cn1c(=O)oc2ccc(-c3ccc(C[C@@H](C#N)NC(=O)CC(N)C4CCCCC4)cc3)cc21 (stereo partly drawn) [Compound 188]
IC50 [1]: ≥ 2.5 nM | IC50 [2]: ≥ 15 nM

CCCCOCCn1c(=O)oc2ccc(-c3ccc(C[C@@H](C#N)NC(=O)C(C)(N)C4CCC4)c(F)c3)cc21 (stereo partly drawn) [Compound 267, 2-amino-N-[(1S)-2-{4-[3-(2-butoxyethyl)-2-oxo-1,3-benzoxazol-5-yl]-2-fluorophenyl}-1-cyanoethyl]-2-cyclobutylpropanamide]
IC50 [1]: ≥ 2.5 nM | IC50 [2]: ≤ 5 nM

Cn1c(=O)oc2ccc(-c3ccc(C[C@@H](C#N)NC(=O)C(N)Cc4cc[nH]n4)cc3)cc21 (stereo partly drawn) [Compound 221, 2-amino-N-[(1S)-1-cyano-2-[4-(3-methyl-2-oxo-1,3-benzoxazol-5-yl)phenyl]ethyl]-3-(1H-pyrazol-3-yl)propanamide]
IC50 [1]: ≥ 2.5 nM | IC50 [2]: ≤ 5 nM

CC(C)C(C)(N)C(=O)N[C@H](C#N)Cc1ccc(-c2ccc3oc(=O)n(C)c3c2)cc1 (stereo partly drawn) [Compound 172, 2-amino-N-[(1S)-1-cyano-2-[4-(3-methyl-2-oxo-1,3-benzoxazol-5-yl)phenyl]ethyl]-2,3-dimethylbutanamide]
IC50 [1]: 1 to 2.5 nM | IC50 [2]: 5 to 15 nM

C[C@H](O)[C@](C)(N)C(=O)N[C@H](C#N)Cc1ccc(-c2ccc3oc(=O)n(C)c3c2)cc1 [Compound 171B, (2S,3S)-2-amino-N-[(1S)-1-cyano-2-[4-(3-methyl-2-oxo-1,3-benzoxazol-5-yl)phenyl]ethyl]-3-hydroxy-2-methylbutanamide]
IC50 [1]: ≥ 2.5 nM | IC50 [2]: ≥ 15 nM

CN(C)C[C@H](O)C(=O)N[C@H](C#N)Cc1ccc(-c2ccc3c(c2)C2(CCN(C4COC4)CC2)OC3)cc1 [Compound 144, (2S)—N-[(1S)-1-cyano-2-{4-[1′-(oxetan-3-yl)-3H-spiro[2-benzofuran-1,4′-piperidin]-6-yl]phenyl}ethyl]-3-(dimethylamino)-2-hydroxypropanamide]
IC50 [1]: ≥ 2.5 nM | IC50 [2]: ≥ 15 nM

CO[C@@H](CN(C)C)C(=O)N[C@H](C#N)Cc1ccc(-c2ccc3c(c2)C2(CCN(C4COC4)CC2)OC3)cc1F [Compound 284, (2S)—N-[(1S)-1-cyano-2-{2-fluoro-4-[1′-(oxetan-3-yl)-3H-spiro[2-benzofuran-1,4′-piperidin]-6-yl]phenyl}ethyl]-3-(dimethylamino)-2-methoxypropanamide]
IC50 [1]: ≥ 2.5 nM | IC50 [2]: 5 to 15 nM

CN(C)C[C@H](O)C(=O)N[C@H](C#N)Cc1ccc(-c2ccc3cnn(C4CCN(C)CC4)c3c2)cc1F [Compound 285, (S)—N—((S)-1-cyano-2-(2-fluoro-4-(1-(1-methylpiperidin-4-yl)-1H-indazol-6-yl)phenyl)ethyl)-3-(dimethylamino)-2-hydroxypropanamide]
IC50 [1]: ≥ 2.5 nM | IC50 [2]: 5 to 15 nM

Cn1c(=O)oc2ccc(-c3ccc(CC(C#N)NC(=O)C4(N)CCCC45CC5)c(F)c3)cc21 (stereo in doubt) [Compound 273A, (4S)-4-amino-N-[(1S)-1-cyano-2-[2-fluoro-4-(3-methyl-2-oxo-1,3-benzoxazol-5-yl)phenyl]ethyl]spiro[2.4]heptane-4-carboxamide]
IC50 [1]: ≥ 2.5 nM | IC50 [2]: ≥ 15 nM

Cn1c(=O)oc2ccc(-c3ccc(C[C@@H](C#N)NC(=O)CC(N)C4CCCCC4)cc3)cc21 (stereo partly drawn) [Compound 190, 3-amino-N-[(1S)-1-cyano-2-[4-(3-methyl-2-oxo-2,3-dihydro-1,3-benzoxazol-5-yl)phenyl]ethyl]-3-cyclohexylpropanamide]
IC50 [1]: ≥ 2.5 nM

CN(C)C[C@](C)(O)C(=O)N[C@H](C#N)Cc1ccc(-c2ccc3c(n2)CCCN3)cc1 [Compound 396]
inhibition at 0.01 µM [3]: ≤ 40% | inhibition at 0.005 µM [4]: ≤ 76.5%

CN(C)C[C@H](O)C(=O)N[C@H](C#N)Cc1ccc(-c2ccc3c(n2)CCCN3)cc1 [Compound 354]
inhibition at 0.01 µM [3]: ≤ 40% | inhibition at 0.005 µM [4]: ≤ 76.5%

CN(C)C[C@](C)(O)C(=O)N[C@H](C#N)Cc1ccc(-c2ccc(S(=O)(=O)N3CCC3)cc2)cc1F [Compound 419]
inhibition at 0.01 µM [3]: ≤ 40% | inhibition at 0.005 µM [4]: ≤ 76.5%

CN(C)C[C@](C)(O)C(=O)N[C@H](C#N)Cc1ccc(-c2cnc3c(n2)CCCC3)cc1F [Compound 418]
inhibition at 0.01 µM [3]: 40 to 66.7% | inhibition at 0.005 µM [4]: ≤ 76.5%

CN(C)C[C@](C)(O)C(=O)N[C@H](C#N)Cc1ccc(-c2ccc3c(n2)CCCN3)cc1F [Compound 409]
inhibition at 0.01 µM [3]: ≥ 66.7% | inhibition at 0.005 µM [4]: 76.5 to 93.9%

CO[C@@H](CN(C)C)C(=O)N[C@H](C#N)Cc1ccc(-c2ccc3nnn(C)c3c2)cc1F [Compound 333]
inhibition at 0.01 µM [3]: 40 to 66.7% | inhibition at 0.005 µM [4]: 76.5 to 93.9%

CCN1C(=O)Cc2ccc(-c3ccc(C[C@@H](C#N)NC(=O)[C@@](C)(O)CN(C)C)c(F)c3)cc21 [Compound 402]
inhibition at 0.01 µM [3]: ≥ 66.7% | inhibition at 0.005 µM [4]: 76.5 to 93.9%

CN(C)C[C@](C)(O)C(=O)N[C@H](C#N)Cc1ccc(-c2ccc3c(c2)C2(CCCN(C)C2)C(=O)N3C)cc1F (stereo partly drawn) [Compound 398]
inhibition at 0.01 µM [3]: ≥ 66.7% | inhibition at 0.005 µM [4]: ≥ 93.9%
